Results from article PMC9029893 (International Journal of Molecular Sciences, 2022).

Columns and labels:
HUVEC cells [1] = experiment: HUVEC migration, wound-healing assay (JuLI Stage); format: cell-based, human
Description: The effects of compounds 1–5 on HUVEC migration were determined using the JuLI™ Stage system (NanoEntek, Seoul, Korea): a real-time cell history recorder allowing for live cell imaging and analysis. The procedure for the migration experiments has been published elsewhere in more detail. Concisely, HUVECs were seeded at a density of 10,000 cells per well on 96-well plates and incubated at standard conditions for 24 h. Following this, a wound was made with a scratcher (NanoEntek, Seoul, Korea). The cells were then rinsed with 100 μL of fresh EGM2 medium, and treated with biguanides 1–5 at the concentrations of 0.3 and 1.0 mM. The cells were incubated and monitored continuously every 10 min for 36 h at 37 °C, 5% CO2. Analysis of obtained images of cell migration, and measurements of the width of the scratch area were performed using dedicated software (NanoEntek, Seoul, Korea). The results were presented as mean ± SD, n = 4–8. The CV for the method was estimated as 14.2–24.4%, depending on the time point (n = 8).

HUVEC cells [2] = experiment: Glucose utilization assay (2-NBDG uptake); format: cell-based, human; conditions: 24 h, then insulin and 2-NBDG
Description: HUVEC were seeded at a density of 20,000 cells per well in 48-well plates, and were cultured in standard conditions for 24 h (medium EGM-2; volume 0.2 mL). Following this, compounds 1–8 were added at concentrations of 0.1 and 0.3 mM, and the HUVECs were incubated for another 24 h. Cells treated with ᴅ-glucose (final concentration in a sample 0.1 mM) were used as positive controls. On the following day, the cells were rinsed with PBS (Biomed Lublin, Lublin, Poland) and cultured for two hours in glucose-free DMEM medium supplemented with 1% BSA (bovine serum albumin, Sigma, St. Louis, MO, USA). Then, the cells were co-treated with insulin (final concentration 0.0001 mM) for 30 min. Afterwards, the medium was discarded and the cells were treated with 2-NBDG (final concentration 0.05 mM) for 30 min, followed by removal of the solutions of each well. The cells were washed twice with 100 µL PBS, and lysed using 1% Triton X-100 solution in PBS. The fluorescence was recorded using a microplate reader (Biotek, Instruments, Winooski, VT, USA) at 480/530 nm.
The concentration of intracellular 2-NBDG was calculated using a calibration curve obtained using 2-NBDG at concentrations ranging from 0.0001 to 0.025 mM in lysis buffer. The results are presented as mean ± SD, n = 4–6. The coefficient of variation for the assay was calculated (CV = 2.2%, n = 8).

[3] = system: tissue plasminogen activator (t-PA) release from HUVEC; experiment: t-PA release from HUVEC (ELISA); format: cell-based, human; conditions: 24 h, HUVEC supernatants
Description: The influence on tissue plasminogen activator release from HUVECs was assessed using an ELISA kit (Abcam, Cambridge, UK). HUVECs seeded at a density of 10,000 per well on 96-well plates were co-incubated with compounds 1–5 at the concentrations of 0.3 and 1.0 mM for an additional 24 h (37 °C, 5% CO2). The cell supernatants were discarded into Eppendorf tubes and preserved at −20° C until analysis. Before the tests, the samples were thawed at room temperature for 15 min, and diluted 2.5-fold with diluent in Elisa kit. The measurements of t-PA concentrations in cell supernatants were conducted according to the manufacturer’s protocol using 3,3’,5,5’-tetramethylbenzidine (TMB) as a chromogenic substrate. The concentration of t-PA in HUVEC supernatants was determined using a calibration curve (R^2 = 0.9936). The results are presented as mean ± SD, n = 6. The CV for the applied method was 7.21%.

[4] = system: coagulation in human citrate plasma; experiment: Coagulation assay (endogenous thrombin generation); format: biochemical
Description: These reagents induce a feedback reaction leading to the generation of endogenous thrombin, and coagulation. The other experimental conditions were the same as for the CL-test (Section 4.12).
The obtained curves were analyzed using dedicated software that estimates the following parameters: TGt—thrombin generation time (s), Fmax—maximum clotting (%T), Tf—plasma clotting time (s), Fvo—initial plasma clotting velocity (%T/min), Sf—area under the clot formation curve (%Txmin), Tc—clot stabilization time (s), S—area under the curve of coagulation (%Txmin).

Question: For `CCCCS(=O)(=O)NC(N)=NC(=N)N(C)C` [Compound 1], which wound width (HUVEC cells [1]; 0.3 mM, 6 hours) is on record?
Answer: 491.9 ± 31.7 µm

Question: And the wound width (HUVEC cells [1]; 0.3 mM, 12 hours)?
Answer: 421.2 ± 5.9 µm

Question: And the wound width (HUVEC cells [1]; 0.3 mM, 18 hours)?
Answer: 365.2 ± 35.8 µm

Question: And the wound width (HUVEC cells [1]; 0.3 mM, 24 hours)?
Answer: 336.7 ± 39.0 µm

Question: And the wound width (HUVEC cells [1]; 0.3 mM, Start)?
Answer: 605.8 ± 38.63 µm

Question: What about the wound width (HUVEC cells [1]; 1.0 mM, 6 hours) of the same molecule?
Answer: 461.9 ± 33.4 µm

Question: And the wound width (HUVEC cells [1]; 1.0 mM, 12 hours)?
Answer: 375.1 ± 29.9 µm

Question: What about the wound width (HUVEC cells [1]; 1.0 mM, 18 hours) of the same molecule?
Answer: 344.4 ± 32.8 µm

Question: What about the wound width (HUVEC cells [1]; 1.0 mM, 24 hours) of the same molecule?
Answer: 337.5 ± 47.3 µm

Question: What about the wound width (HUVEC cells [1]; 1.0 mM, Start) of the same molecule?
Answer: 589.1 ± 36.3 µm

Question: What about the “Glucose uptake (intracellular 2-NBDG)” value (HUVEC cells [2]; 0.1 mM) of the same molecule?
Answer: 0.0134 ± 0.0004 mM

Question: What about the “Glucose uptake (intracellular 2-NBDG)” value (HUVEC cells [2]; 0.3 mM) of the same molecule?
Answer: 0.0142 ± 0.0007 mM

Question: And the “Released t-PA” value ([3]; 0.3 mM)?
Answer: 2427.2 ± 246.0 pg/mL

Question: And the “Released t-PA” value ([3]; 1.0 mM)?
Answer: 1709.5 ± 219.1 pg/mL

Question: And the “Fmax—maximum clotting” value ([4]; 0.06 mM)?
Answer: 76.30 ± 7.79 %T

Question: And the “Fvo—initial plasma clotting velocity” value ([4]; 0.06 mM)?
Answer: 97.22 ± 36.13 %T/min

Question: And the “Sc—area under the curve of a stable clot formation” value (shortened to “Sc—area under the curve”) ([4]; 0.06 mM)?
Answer: 458.27 ± 113.77 %T x min

Question: And the “Sf—area under the clot formation curve” value ([4]; 0.06 mM)?
Answer: 140.16 ± 31.01 %T x min

Question: What about the “S—overall potential of clot formation” value ([4]; 0.06 mM) of the same molecule?
Answer: 1449.09 ± 154.09 %T x min

Question: What about the “TGt—thrombin generation time” value ([4]; 0.06 mM) of the same molecule?
Answer: 161.33 ± 35.27 s

Question: What about the “Tf—plasma clotting time” value ([4]; 0.06 mM) of the same molecule?
Answer: 155.67 ± 45.29 s

Question: And the “Fmax—maximum clotting” value ([4]; 0.3 mM)?
Answer: 82.67 ± 4.79 %T

Question: And the “Fvo—initial plasma clotting velocity” value ([4]; 0.3 mM)?
Answer: 117.65 ± 36.38 %T/min

Question: And the “Sc—area under the curve” value ([4]; 0.3 mM)?
Answer: 544.47 ± 81.13 %T x min

Question: And the “Sf—area under the clot formation curve” value ([4]; 0.3 mM)?
Answer: 104.53 ± 38.44 %T x min

Question: What about the “S—overall potential of clot formation” value ([4]; 0.3 mM) of the same molecule?
Answer: 1586.01 ± 103.04 %T x min

Question: What about the “TGt—thrombin generation time” value ([4]; 0.3 mM) of the same molecule?
Answer: 162.33 ± 37.96 s

Question: What about the “Tf—plasma clotting time” value ([4]; 0.3 mM) of the same molecule?
Answer: 109.63 ± 40.06 s

Question: And the “Fmax—maximum clotting” value ([4]; 0.6 mM)?
Answer: 75.62 ± 9.88 %T

Question: And the “Fvo—initial plasma clotting velocity” value ([4]; 0.6 mM)?
Answer: 96.52 ± 20.91 %T/min

Question: What about the “Sc—area under the curve” value ([4]; 0.6 mM) of the same molecule?
Answer: 444.40 ± 91.71 %T x min

Question: What about the “Sf—area under the clot formation curve” value ([4]; 0.6 mM) of the same molecule?
Answer: 119.01 ± 48.07 %T x min

Question: What about the “S—overall potential of clot formation” value ([4]; 0.6 mM) of the same molecule?
Answer: 1442.42 ± 198.39 %T x min

Question: What about the “TGt—thrombin generation time” value ([4]; 0.6 mM) of the same molecule?
Answer: 176.83 ± 57.02 s

Question: What about the “Tf—plasma clotting time” value ([4]; 0.6 mM) of the same molecule?
Answer: 138.77 ± 59.29 s

Question: What about the “Fmax—maximum clotting” value ([4]; 1.5 mM) of the same molecule?
Answer: 74.15 ± 7.83 %T

Question: And the “Fvo—initial plasma clotting velocity” value ([4]; 1.5 mM)?
Answer: 107.77 ± 35.80 %T/min

Question: What about the “Sc—area under the curve” value ([4]; 1.5 mM) of the same molecule?
Answer: 452.95 ± 102.22 %T x min

Question: And the “Sf—area under the clot formation curve” value ([4]; 1.5 mM)?
Answer: 114.89 ± 64.82 %T x min

Question: What about the “S—overall potential of clot formation” value ([4]; 1.5 mM) of the same molecule?
Answer: 1435.77 ± 143.80 %T x min

Question: What about the “TGt—thrombin generation time” value ([4]; 1.5 mM) of the same molecule?
Answer: 172.00 ± 43.56 s

Question: And the “Tf—plasma clotting time” value ([4]; 1.5 mM)?
Answer: 135.33 ± 75.79 s
